Experiments:
[1] = tested on: hemoglobin (HbAlC formation); assay: Hemoglobin-δ-Gluconolactone (δ-Glu) assay (early stage glycation, HbAlC formation in whole blood); type: cell-based, human; conditions: 1 millimole/L compound, 50 millimoles/L δ-Glu, whole blood from normal volunteers, 16 hours at 37° C.
Method: The δ-Glu assay is a specific method for investigation of inhibitors of the early stage of glycation. Evaluation of early glycation products (Amadori) formation on hemoglobin (HbAlC) is performed by incubating red blood cells with an oxidized form of glucose in the presence and the absence of the inhibitor compound followed by determination of HbAlC in the test versus the control (Rahbar and Nadler., 1999). […] By contrast, glucose requires weeks for an equivalent reaction to occur. We have used this finding to devise an assay method to measure early stage glycation of hemoglobin (Amadori product) and an assay to evaluate the ability of an inhibitor to inhibit HbAlC formation. Briefly, fresh blood was drawn in potassium-EDTA and prepared for incubation within 30 minutes of collection by mixing 200 μL of blood with 40 μL of either phosphate buffered-saline (PBS), pH 7.4, alone, PBS containing 50 millimoles/L δ-Glu (Sigma), or PBS containing 50 millimoles/L δ-Glu plus 1 millimole/L inhibitor. After incubation for 16 hours at 37° C., the percentage of glycated hemoglobin present was determined. The percentage of glycated Hb (HbAlC) was determined using a dedicated ion-exchange HPLC system (BIORAD DIAMAT). Blood samples were analyzed in triplicate. The % inhibition of HbAlC formation by the compound was calculated according to the following formula: ((B−C)/(B−A))×100 where A is HbAlC concentration in the baseline control tube not treated with δ-Glu, B is the HbAlC concentration in blood incubated with δ-Glu, C is the HbAlC content of the test tube treated both with δ-Glu and the inhibitor compound.
The amount of (HbAlC) formation using δ-Glu treated whole blood from normal volunteers using 1 millimole/L of the compounds was calculated. Various inhibitors (compounds LR103-LR115) show different levels of HbAlC depending on their inhibitory potencies.

BSA = assay: BSA-Glucose assay (glucose-mediated development of fluorescence of BSA); type: biochemical; conditions: BSA 50 mg/mL, 800 mM glucose, 7 days at 37° C., fluorescence 330/410 nm; compound concentration not stated
Method: This test is used to evaluate the ability of the inhibitors to inhibit glucose-mediated development of fluorescence of BSA (Ikeda et al., 1996). Triplicate samples of BSA (fraction V, essentially fatty acid free, low endotoxin) from Sigma 50 mg/mL and 800 mM glucose (144 mg/mL) in […] phosphate buffer pH 7.4 containing NaN3 0.2 g/L was incubated under aseptic conditions at 37° C. for 7 days in the presence or absence of various concentrations of the compounds. After 7 days of incubation each sample was examined for the development of specific fluorescence (excitation, 330 nm; emission, 410 nm). The % inhibition of AGE formation in the test sample versus control was calculated for each inhibitor compound. Aminoguanidine (50 mM) was used as a positive control.
This method assays for inhibitors of late glycation and AGE formation (post-Amadori).

[2] = N-Acetyl-Glycyl-Lysine Methyl Ester (G.K. peptide)-Ribose assay; type: biochemical; conditions: 24 hours at 37° C.; for Percent Inhibition in the G.K.-Ribose Assay: 1 millimole/L compound, fluorescence 330/415 nm
Method: Evaluation of the late glycation products (AGEs), and AGE-inhibition by the new inhibitor compounds was tested by incubation of G.K. peptide in ribose in the presence or the absence of the agent, followed by determination of chromophores generated in the course of glycation and AGE formation through determination of their specific fluorescence. The Nagaraj et al. (1996) method used to evaluate the ability of the compounds of the present invention to inhibit the crosslinking of N-acetylglycyl-lysine methyl ester in the presence of ribose was as follows: Stock Solutions: • 0.5 M sodium phosphate buffer pH 7.4 containing NaN3 0.2 g/L • GK peptide (Sigma) 80 mg/mL in 0.5 M sodium phosphate buffer pH 7.4 • Ribose 800 mM (120 mg/mL) in 0.5 M phosphate buffer Triplicate samples of equal volumes (0.1 mL) of the 3 stock solutions were mixed together, filtered through a 0.2 micron filter (Coming) and incubated under aseptic conditions for 24 hours at 37° C. The inhibitor compounds were added to a final concentration of 1 millimole/L. At the end of the incubation period, samples were analyzed for their specific fluorescence (excitation, 330 nm; emission, 415 nm). The % inhibition by different concentrations of inhibitor was calculated as described above. Aminoguanidine was used at 50 mM as a positive control.

[3] = Inhibition of copper-catalyzed autooxidation of ascorbic acid (copper-chelating activity); type: physicochemical; conditions: read-out: IC50, concentration that inhibited the rate of ascorbic acid oxidation by 50% (copper-chelating activity), FIGS. 3 and 4
Method: This assay was performed according to Price et al. (2001). The kinetics of oxidation of ascorbic acid (AA) at the rate of decrease in absorbance at 265 nm was measured. For studies with AGE inhibitors, the ascorbic acid was added to initiate the reaction. Aliquots were removed at 0, 15, 30, 45, and 60 minutes and transferred to autoinjector vials containing DPTA. Samples were analyzed by reverse phase HPLC, (Waters 2690 Millenium 32 Separator Module), equipped with an auto-injector using Xterra™ RP18 column (250×4.6 mm, 5 μm). Solvents and gradient were all used as described in Price et al. (2001). The concentration of each inhibitor compound that inhibited the rate of AA oxidation by 50% was calculated using Prism (Graph Pad-San Diego).

## CC(C)(Oc1ccc(NCc2ccc(Cl)cc2)cc1)C(=O)O [LR106, 4-(4-chlorobenzylaminophenoxyisobutyric)acid]
[1]
  Percent Inhibition of HbAlC formation in the δ-Glu Assay: 40.9%
BSA
  Percent Inhibition in the BSA-Glucose Assay: 14.4%
[2]
  Percent Inhibition in the G.K.-Ribose Assay: 10.5%

## N=C(N)NN [AG, aminoguanidine, reference compound]
[2]; Aminoguanidine 50 mM
  Percent Inhibition in the G.K.-Ribose Assay (positive control): 67%

## CC(C)(Oc1ccc(N(Cc2ccc(Cl)cc2)C(=O)Nc2ccc(Cl)c(Cl)c2)cc1)C(=O)O [LR103, 1-[(4-chlorobenzyl)-3-(3,4-dichlorophenylureido)]-4-phenoxyisobutyric acid]
[1]
  Percent Inhibition of HbAlC formation in the δ-Glu Assay: 43.2%
[3]
  IC50: ~75 µM
BSA
  Percent Inhibition in the BSA-Glucose Assay: 4%
[2]
  Percent Inhibition in the G.K.-Ribose Assay: 14%

## CC(C)(Oc1ccc(NC(=O)Nc2ccc(NC(=O)Nc3ccc(OC(C)(C)C(=O)O)cc3)c(Cl)c2)cc1)C(=O)O [LR107, 2-chlorobenzene-1,4-bis(4-ureidophenoxyisobutyric acid)]
[1]
  Percent Inhibition of HbAlC formation in the δ-Glu Assay: 43.2%
BSA
  Percent Inhibition in the BSA-Glucose Assay: 28.7%
[2]
  Percent Inhibition in the G.K.-Ribose Assay: 19.5%

## CC(C)(Oc1ccc(N(Cc2c(F)cccc2Cl)C(=O)Nc2c(F)cccc2Cl)cc1)C(=O)O [LR109, 1-[(2-fluoro-6-chlorobenzyl)-3-(2-fluoro-6-chlorophenylureido)]-4-phenoxyisobutyric acid]
[1]
  Percent Inhibition of HbAlC formation in the δ-Glu Assay: 56.8%
BSA
  Percent Inhibition in the BSA-Glucose Assay: 34.6%
[2]
  Percent Inhibition in the G.K.-Ribose Assay: 9.5%

## O=C(O)COc1cccc2cccnc12 [LR111, 8-quinolinoxy acetic acid]
[1]
  Percent Inhibition of HbAlC formation in the δ-Glu Assay: 38.6%
BSA
  Percent Inhibition in the BSA-Glucose Assay: 21.6%
[2]
  Percent Inhibition in the G.K.-Ribose Assay: 9.7%

## CC(C)(Oc1ccc(NC(=O)Nc2cc(Cl)cc(Cl)c2)cc1)C(=O)N[C@@H](Cc1ccccc1)C(=O)O [LR115, L, α-4-[(3,5-dichlorophenyureido)phenoxyisobutyrylamido]phenylalanine]
[1]
  Percent Inhibition of HbAlC formation in the δ-Glu Assay: 47.7%
BSA
  Percent Inhibition in the BSA-Glucose Assay: 22.3%
[2]
  Percent Inhibition in the G.K.-Ribose Assay: 0%

## CC(C)(Oc1ccc(NC(=O)Nc2ccc(F)c(Cl)c2)cc1)C(=O)Nc1ccccc1C(=O)O [LR104, 4-(4-fluoro-3-chlorophenylurido)phenoxyisobutyrylamidophenyl-2-carboxylic acid]
[1]
  Percent Inhibition of HbAlC formation in the δ-Glu Assay: 47.7%
[3]
  IC50: ~100 µM
BSA
  Percent Inhibition in the BSA-Glucose Assay: 18.4%
[2]
  Percent Inhibition in the G.K.-Ribose Assay: 0%

## CC(=O)N[C@@H](Cc1c[nH]cn1)C(=O)Oc1cccc2cccnc12 [LR113, L-8-quinolinolyl(acetylhistidine)]
[1]
  Percent Inhibition of HbAlC formation in the δ-Glu Assay: 36.3%
BSA
  Percent Inhibition in the BSA-Glucose Assay: 21.5%
[2]
  Percent Inhibition in the G.K.-Ribose Assay: 11%

## CC(C)(Oc1ccc(N(Cc2ccc(Cl)cc2)C(=O)Nc2cc(Cl)cc(Cl)c2)cc1)C(=O)O [LR108, 1-[(4-chlorobenzyl)-3-(3,5-dichlorophenyureido)]-4-phenoxyisobutyric acid]
[1]
  Percent Inhibition of HbAlC formation in the δ-Glu Assay: 2.0%
BSA
  Percent Inhibition in the BSA-Glucose Assay: 31.1%
[2]
  Percent Inhibition in the G.K.-Ribose Assay: 19.7%

## CC(C)(Oc1ccc(N(Cc2c(F)cccc2Cl)C(=O)Nc2ccc(Cl)c(Cl)c2)cc1)C(=O)O [LR105, 1[(2-fluoro-6-chlorobenzyl)-3-(3,4-dichlorophenyureido)]-4-phenoxyisobutyric acid]
[1]
  Percent Inhibition of HbAlC formation in the δ-Glu Assay: 38.6%
BSA
  Percent Inhibition in the BSA-Glucose Assay: 21.5%
[2]
  Percent Inhibition in the G.K.-Ribose Assay: 12%

## CC(C)(Oc1ccc(NC(=O)c2c3c(nc4ccccc24)CCCC3)cc1)C(=O)O [LR110, 4-(1,2,3,4-tetrahydroacridine-9-carboxamidophenoxyisobutyric)acid]
[1]
  Percent Inhibition of HbAlC formation in the δ-Glu Assay: 38.6%
BSA
  Percent Inhibition in the BSA-Glucose Assay: 28.5%
[2]
  Percent Inhibition in the G.K.-Ribose Assay: 11%

## 4,4′-bis [(methyleneoxyethyleneamino)phenoxy]isobutyric acid [LR112]
[1]
  Percent Inhibition of HbAlC formation in the δ-Glu Assay: 43.2%
BSA
  Percent Inhibition in the BSA-Glucose Assay: 44.7%
[2]
  Percent Inhibition in the G.K.-Ribose Assay: 21%

## 4-[(3,5-dichlorophenyureido)phenoxyisobutyrylamido]-2-hydroxybenzene-4-carboxylic acid [LR114]
[1]
  Percent Inhibition of HbAlC formation in the δ-Glu Assay: 45.4%
BSA
  Percent Inhibition in the BSA-Glucose Assay: 22.7%
[2]
  Percent Inhibition in the G.K.-Ribose Assay: 7.2%

Reference: US7030133B2, “Inhibitors of formation of advanced glycation endproducts (AGEs)” (City of Hope, priority 1999, dated 2006)
